# Measurements published in patent US20070146686A1, “Non-invasive method to monitor microcirculation” (priority 2004, published 2007).
# System: skin
# Settings: topical application on the skin; images at 0.5, 2, 5, 10 minutes following application; listed as methyl nicotineate amide
# Excerpt: Another way of administering the agent is by topical application on the skin. […] This agent is frequently used in skin testing for assessing the sensitivity of the skin.
# In this example a modern digital camera technology is utilized, exemplified by Canon IXUS V3, Canon Svenska AB, Solna, Sweden. […] In this approach a flash of white light—or alternatively continuous light—(A, FIG. 4) illuminates the skin (B, FIG. 4) under study after having been linearly polarized by a polarizer (C, FIG. 4) positioned in front of the flash lamp—or a lamp delivering continuous light—(D, FIG. 4). In the skin surface (E, FIG. 4), a fraction of the polarized light is directly reflected towards the camera aperture with essentially no change in polarization. […]
# At least two of the normalized data matrixes representing the different colors are then further processed to form an output data matrix (L, FIG. 4), where each value corresponds to the amount of vasodilatation in the actual source point in tissue. In this example, the algorithm generates an output data matrix of which each element is calculated by subtracting the green value from the red value and divides the difference by the sum of the red and the green value of each element of the normalized original data matrixes.
substance,measurement,value
methyl nicotinate amide,local vasodilatation in skin,Vasodilatation
